Consider three compounds from paper PMC10709440, “High-throughput ligand profile characterization in novel cell lines expressing seven heterologous insect olfactory receptors for the detection of volatile plant biomarkers” (Scientific Reports, 2023).

Where two headings read alike, the source gives them in different places.

The test system of assay [1] is OR10a. Details: method as in earlier work. To be noted: DoOR database value, ref DoOR, cited from earlier work.
Assay [2] has as its target T1, Drosophila OR85b (Drosophila melanogaster, UniProt Q9VHQ7).
T1 construct: expressed in transfected cells
T1 sequence (Q9VHQ7 1-390): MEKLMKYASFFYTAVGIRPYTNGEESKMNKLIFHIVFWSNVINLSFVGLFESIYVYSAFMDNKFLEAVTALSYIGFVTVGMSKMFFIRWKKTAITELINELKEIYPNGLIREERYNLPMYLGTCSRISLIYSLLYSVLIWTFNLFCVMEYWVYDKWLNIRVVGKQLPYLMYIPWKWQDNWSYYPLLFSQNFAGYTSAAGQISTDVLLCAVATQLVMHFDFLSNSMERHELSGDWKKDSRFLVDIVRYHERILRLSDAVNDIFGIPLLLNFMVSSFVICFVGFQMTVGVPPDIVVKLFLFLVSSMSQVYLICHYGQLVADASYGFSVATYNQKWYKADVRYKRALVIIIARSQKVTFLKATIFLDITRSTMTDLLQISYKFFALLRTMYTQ
T1 sequence (Q9VNB5 1-486 partner): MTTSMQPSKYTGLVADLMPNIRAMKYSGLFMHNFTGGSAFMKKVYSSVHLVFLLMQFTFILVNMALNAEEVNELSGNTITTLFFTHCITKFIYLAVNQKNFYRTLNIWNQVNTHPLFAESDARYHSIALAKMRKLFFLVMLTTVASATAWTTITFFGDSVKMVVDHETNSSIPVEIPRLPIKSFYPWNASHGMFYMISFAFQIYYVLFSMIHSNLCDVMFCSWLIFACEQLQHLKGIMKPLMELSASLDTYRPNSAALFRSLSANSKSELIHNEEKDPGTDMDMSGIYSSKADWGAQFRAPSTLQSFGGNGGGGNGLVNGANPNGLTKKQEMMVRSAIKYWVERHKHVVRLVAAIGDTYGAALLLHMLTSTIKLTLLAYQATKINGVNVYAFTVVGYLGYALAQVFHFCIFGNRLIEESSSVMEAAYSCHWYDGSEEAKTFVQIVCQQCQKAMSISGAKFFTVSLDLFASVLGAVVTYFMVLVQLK
Briefly: Calcium ion fluorescence (GCaMP6) assay, OR85b stable HEK293 cell line. The conditions noted are these: for OR85b response (VUAA1-normalized) at 1 μM / OR85b response (VUAA1-normalized) at 10 μM / OR85b response (VUAA1-normalized) at 100 μM / Average response: OR85b cell line; for OR85b response (VUAA1-normalized) at 1 μM: VOC concentration 1 μM; for OR85b response (VUAA1-normalized) at 10 μM: VOC concentration 10 μM; for OR85b response (VUAA1-normalized) at 100 μM: VOC concentration 100 μM; for Average response: VUAA1-normalized response, mean of biological replicates; for DF norm AVERAGE OR85b: threshold 0.05, below shown as 0. Type of assay: cell-based. The method in brief:
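HEK293 lines stably expressing each Drosophila OR with GCaMP6, doxycycline-induced (1 μg/mL) 48 or 72 h. Fluorescence recorded 5 s baseline then 30 s after VOC injection at pH 7.3; ΔF=(FMAX−F0)/F0, normalized to 50 µM VUAA1 response per line, triplicate wells averaged; concentration series 0.01–100 μM.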

Assay [3] deals with OR98a. Also noted: method as in earlier work. To be noted: DoOR database value, ref DoOR, cited from earlier work.
The subject of assay [4] is OR85b. Also noted: method as in earlier work. The conditions noted are these: DoOR database value, ref DoOR, cited from earlier work.
Assay [5] concerns OR47a. Also noted: method as in earlier work. To be noted: DoOR database value, ref DoOR, cited from earlier work.
For assay [6], the system named is OR71a. Details: method as in earlier work. To be noted: DoOR database value, ref DoOR, cited from earlier work.
In assay [7] the test system is OR13a. Details: method as in earlier work. To be noted: DoOR database value, ref DoOR, cited from earlier work.
The test system of assay [8] is OR49b. Also noted: method as in earlier work. The conditions noted are these: DoOR database value, ref DoOR, cited from earlier work.
[9] abbreviates: ligand concentration 1 (unit not given).
The mark [10] stands for this setting: ligand concentration 10 (unit not given).
[11] abbreviates: ligand concentration 100 (unit not given).
Where [12] appears, read: HEK293, read-out: OR85b response (VUAA1-normalized response).

With `OCCc1ccccc1` [phenethyl alcohol], in assay [1] (OR10a), the “OR10a DoOR response” value was 0.014. The “OR85b response (VUAA1-normalized) at 1 μM” value in assay [2] was 0.10. Besides, in assay [2], the “OR85b response (VUAA1-normalized) at 10 μM” value was found to be 0.0758. In addition, the “OR85b response (VUAA1-normalized) at 100 μM” value in assay [2] is 0.00. Further, the Average response in assay [2] (cc. 1 µM) is given as 0.10; in assay [2] (cc. 10 µM), 0.0758; in assay [2] (cc. 100 µM), 0.04. For the same compound, the “DF norm AVERAGE OR85b” value in assay [2] (setting [9]) was found to be 0.09884; in assay [2] (setting [10]), 0.07579; in assay [2] (setting [11]), 0. The “OR98a DoOR response” value in assay [3] (OR98a) is -0.01. Also, the “OR85b DoOR response” value in assay [4] (OR85b) was 0.006. Moreover, the “OR47a DoOR response” value in assay [5] (OR47a) was 0.009. For the same compound, in assay [6] (OR71a), the “OR71a DoOR response” value was 0.17. For the same compound, in assay [7] (OR13a), the “OR13a DoOR response” value was 0.12. Also, the “OR49b DoOR response” value in assay [8] (OR49b) is listed as 0.09.

With `CCCOC(C)=O` [propyl acetate], in assay [1] (OR10a), the “OR10a DoOR response” value was 0.18. Moreover, the “OR85b response (VUAA1-normalized) at 1 μM” value in assay [2] was 0.0538. Moreover, the “OR85b response (VUAA1-normalized) at 10 μM” value in assay [2] was found to be 0.00. In assay [2], the “OR85b response (VUAA1-normalized) at 100 μM” value was determined as 0.00. Besides, the Average response was 0.0538 in assay [2] (cc. 1 µM), 0.0361 in assay [2] (cc. 10 µM) and 0.00 in assay [2] (cc. 100 µM). Also, the “DF norm AVERAGE OR85b” value in assay [2] (setting [9]) is reported as 0.05375; in assay [2] (setting [10]), 0; in assay [2] (setting [11]), 0. Moreover, in assay [3] (OR98a), the “OR98a DoOR response” value was 0.50. In addition, the “OR85b DoOR response” value in assay [4] (OR85b) is 0.49. Besides, in assay [5] (OR47a), the “OR47a DoOR response” value is on record as 0.68. Besides, the “OR71a DoOR response” value in assay [6] (OR71a) is reported as 0.04. Also, the “OR13a DoOR response” value in assay [7] (OR13a) is reported as 0.14. For the same compound, the “OR49b DoOR response” value in assay [8] (OR49b) is listed as 0.023.

On to `CC(=O)c1ccccc1` [acetophenone], for which, in assay [1], the “OR10a DoOR response” value is given as 0.64. In addition, the activation at 1 µM in assay [2] (setting [12]) turned out to be 0%. In addition, the activation at 10 µM in assay [2] (setting [12]) turned out to be 0%. In addition, the activation at 100 µM in assay [2] (setting [12]) amounted to 0%. The Average response in assay [2] (cc. 1 µM), in assay [2] (cc. 10 µM) and in assay [2] (cc. 100 µM) was 0.00 in each case. In addition, the “DF norm AVERAGE OR85b” value in assay [2] (setting [9]), in assay [2] (setting [10]) and in assay [2] (setting [11]) was 0 throughout. Moreover, the “OR98a DoOR response” value in assay [3] is 0.21. The “OR85b DoOR response” value in assay [4] was 0.04. The “OR47a DoOR response” value in assay [5] is 0.11. The “OR71a DoOR response” value in assay [6] is 0.05. The “OR13a DoOR response” value in assay [7] was 0.02. For the same compound, in assay [8], the “OR49b DoOR response” value is 0.07.
